{
  "source": "ChEMBL document CHEMBL5726799",
  "about": "“IRAK4 inhibiting agents” (2019)",
  "data": [
    {"target": "T1, Interleukin-1 receptor-associated kinase 4 (Homo sapiens, UniProt Q9NWZ3)", "T1 sequence (Q9NWZ3 whole entry)": "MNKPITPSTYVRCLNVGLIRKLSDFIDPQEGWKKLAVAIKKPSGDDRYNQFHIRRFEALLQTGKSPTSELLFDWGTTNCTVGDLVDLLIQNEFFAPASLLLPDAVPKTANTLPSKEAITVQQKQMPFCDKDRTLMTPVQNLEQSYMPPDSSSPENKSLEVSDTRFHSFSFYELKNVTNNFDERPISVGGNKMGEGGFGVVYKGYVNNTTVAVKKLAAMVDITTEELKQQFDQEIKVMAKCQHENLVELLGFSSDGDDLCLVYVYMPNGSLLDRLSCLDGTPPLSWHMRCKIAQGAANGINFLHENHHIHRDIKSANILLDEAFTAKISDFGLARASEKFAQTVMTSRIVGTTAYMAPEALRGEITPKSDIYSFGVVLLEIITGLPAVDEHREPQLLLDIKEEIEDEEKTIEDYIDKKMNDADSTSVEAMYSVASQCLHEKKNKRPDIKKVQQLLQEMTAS", "assay": "Biochemical Assay: The biochemical assay is in a AlphaScreen format. The kinase reaction is based on the IRAK-4 phosphorylation of a biotin labeled peptide. The phosphopeptide is incubated with anti-phosphothreonine antibody as well as streptavidin- and protein A-coated beads. Binding of the protein-A coated beads to the antibody and the streptavidin beads to the peptide, leads to an energy transfer from one bead to the other, ultimately producing a luminescent/fluorescent signal.Generally, the kinase reaction is carried out at 1 nM IRAK4, 1.6 μM peptide, 1 mM ATP in reaction buffer 50 mM Hepes, 60 mM NaCl, 5 mM MgCl2, 0.25 mM MnCl2, 2 mM DTT, 0.01% BSA, 0.01% Tween-20) for 3.5 h at RT.", "units": {"IC50": "nM"}, "values": [
      {"compound": "CCC[C@H](N)c1cccc(-c2cc(N3CCC3)c3cnn(-c4cccc(CO)n4)c3c2)n1", "IC50": "< 100"},
      {"compound": "N#CCNC(=O)c1cc(N)cc(-c2ccc3cnn(-c4cccc(C(F)(F)F)n4)c3c2)c1", "IC50": "< 100"},
      {"compound": "CCC[C@H](N)c1cccc(-c2cc(N3CCOCC3)c3cnn(-c4cccc(CO)n4)c3c2)n1", "IC50": "< 100"},
      {"compound": "CCc1cccc(-c2cc(-c3nnc(C)o3)c3cnn(-c4cccc(CO)n4)c3c2)n1", "IC50": "< 100"}
    ]}
  ]
}
